Here are results for seven molecules from PMC3412620 (PLoS ONE, 2012).

The target in series [1] is T1, human pyridoxal kinase (hPL kinase) (Homo sapiens, UniProt O00764).
T1 construct: gene PDXK; wild-type hPL kinase
T1 sequence (O00764 1-312): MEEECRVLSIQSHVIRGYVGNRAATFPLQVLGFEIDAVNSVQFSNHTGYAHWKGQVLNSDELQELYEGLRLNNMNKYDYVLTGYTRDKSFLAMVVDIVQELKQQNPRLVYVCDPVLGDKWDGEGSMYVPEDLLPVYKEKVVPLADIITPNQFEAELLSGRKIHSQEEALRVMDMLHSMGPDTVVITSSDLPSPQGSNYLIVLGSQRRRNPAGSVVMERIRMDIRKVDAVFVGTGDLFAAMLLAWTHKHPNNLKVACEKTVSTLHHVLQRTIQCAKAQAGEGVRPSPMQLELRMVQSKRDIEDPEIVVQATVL
Nature of the series: crystal structure ([…] Å, ternary with ginkgotoxin). The series is classed as binding.

Series [2] deals with T1, human pyridoxal kinase (hPL kinase). Nature of the series: crystal structure ([…] Å), […] occupancy; density broken between ring and phosphate. Type of series: binding.
Series [3] shares this target. Put plainly: percentage inhibition at […], spectrophotometric assay. The series is classed as biochemical.
Series [4] has the same target. Nature of the series: spectrophotometric kinetic assay (PL to PLP, […] nm). The series is classed as biochemical.
Substrate in series [5]: Cc1ncc(CO)c(C=O)c1O
Put plainly: spectrophotometric steady-state kinetics with purified enzyme (Km). The series is classed as biochemical, Homo sapiens. Conditions: MgATP PL substrate site.

In the case of `Nc1ncnc2c1ncn2[C@@H]1O[C@H](COP(=O)(O)OP(=O)(O)OP(=O)(O)O)[C@@H](O)[C@H]1O` [ATP], the “crystal structure (2.15 Å, ternary with ginkgotoxin)” value in series [1] was “We observed bound MgATP and ginkgotoxin (Fig. 4A–C) at both subunit active sites”.

As to `COCc1c(COP(=O)(O)O)cnc(C)c1O` [GIP, ginkgotoxin phosphate], the “crystal structure (2.15 Å), 40% occupancy; density broken between ring and phosp” value in series [2] was “We also observed what appears to be the phosphorylated product of ginkgotoxin bound at the PL sites”.

`Cn1c(=O)c2c(ncn2C)n(C)c1=O` [caffeine] gave an inhibition at 100 µM in series [3] of 21%.

`CCCn1c(=O)[nH]c(=O)c2[nH]cnc21` [enprofylline] yielded an inhibition constant Ki in series [4] of 228 µM.

Turning to `Nc1nnc(-c2cccc(Cl)c2Cl)c(N)n1` [lamotrigine], the inhibition constant Ki in series [4] worked out at 56 µM.

`Cn1cnc2c1c(=O)[nH]c(=O)n2C` [theobromine]: the inhibition at 100 µM in series [3] is 22%.

B1: human pyridoxal kinase (hPL kinase) (Homo sapiens) (protein)
chain: MEEECRVLSIQSHVIRGYVGNRAATFPLQVLGFEIDAVNSVQFSNHTGYAHWKGQVLNSDELQELYEGLRLNNMNKYDYVLTGYTRDKSFLAMVVDIVQELKQQNPRLVYVCDPVLGDKWDGEGSMYVPEDLLPVYKEKVVPLADIITPNQFEAELLSGRKIHSQEEALRVMDMLHSMGPDTVVITSSDLPSPQGSNYLIVLGSQRRRNPAGSVVMERIRMDIRKVDAVFVGTGDLFAAMLLAWTHKHPNNLKVACEKTVSTLHHVLQRTIQCAKAQAGEGVRPSPMQLELRMVQSKRDIEDPEIVVQATVL
notes: wild-type hPL kinase
Consider B1, for which the Km in series [5] is 58 µM.
